Data published in patent US12139729B2, “Neurodegenerative disorders” (priority 2013, dated 2024).
Where two headings read alike, the source gives them in different places. No end group written: not given here.

Legend:
[1] = target: T1, α7nAChR (the α7 nicotinic acetylcholine receptor), allosteric site (Rattus norvegicus, UniProt Q05941); assay: [3H] Ivermectin binding assay on PC12 cell membranes
T1 construct: [3H]; host or cells: wild-type PC12 cells
Description: PC12 membranes where obtained to perform binding assays. PC12 cells were grown until confluence on 100 mm plates. Growth medium was removed and ice-cold 50 mM Tris-HCl buffer (pH 7.4) containing 4.5 μg/μ1 aprotinin and 0.1 mM phenylmethylsulphonylfluoride (PMSF) were added. Cells were mechanically detached and pelleted by centrifugation (1040×g) for 4 minutes at 4° C. Pellets were homogenized with a Polytron and centrifuged (13000×g) for 20 minutes at 4° C. The pellets were resuspended in fresh buffer and incubated at 37° C. for 10 minutes to remove endogenous neurotransmitters. The samples were subsequently re-centrifuged. The final pellet was resuspended in buffer and the protein concentration determined using the Bradford Reagent (Sigma-Aldrich, St. Louis, MO). The cell membrane preparation was stored at −80° C.
For the binding with PC12 membranes, each incubation was performed in polystyrene tube (VWR International Ltd; Leicestershire, UK) containing 0.25 ml of membranes diluted in Tris-HCl 50 mM buffer (containing 50 μg of PC12 membranes) with 5 nM [3H] […] Thereafter, samples were filtered through Brandel GB glass fibre filters (MD, USA); pre-soaked in 0.5% polyethylenemine by a Harvester (Brandel; MD, USA). Tubes were washed 3 times with ice cold 50 mM Tris-HCl buffer. Radioactivity in the tubes was counted by scintillation spectrometry using a 300 SL Liquid scintillation counter (Lablogic Systems Limited, UK). Specific binding was determined by subtracting the non-specific (cells treated with Ivermectin 30 μM) value to all the tubes.

PC12 cells = assay: Sulforhodamine B (SRB) cell viability assay; assay type: cell-based
Description: (§1) Wild-type PC12 cell were provided by Sigma-Aldrich (St. Louis, MO). The culture was routinely plated in 100 mm dishes (Corning) coated with collagen (2 μg/cm^2) and maintained in growth medium with Minimum Essential Medium Eagle (MEM) supplemented with heat-inactivated 10% horse serum (HS) and 5% foetal bovine serum (FBS), 10 mM HEPES, 2 mM L-Glutamine and 1:400 Penicillin/streptomycin solution. Cells were maintained at 37° C. in a humidified atmosphere 5% CO2 and the medium was replaced every 2 days. For splitting, cells were dislodged from the dish using a pipette with medium, with a portion of these replated onto new cultured dishes. Cells were used between passages 12 and 25.
(§2) The cell viability assay used was the sulforhodamine B (SRB) colorimetric assay for toxicity screening. The day before of the experiment cells were seeded onto collagen-coated 96-well plates in a concentration of 40,000 cells/well. Cell concentration was determined by the Fuchs-Rosenthal chamber. […] After treatment, medium was replaced and cells were fixed by adding 100 μl of 10% Trichloroacetic Acid (TCA) for 1 h at 4° C. Thereafter, cells were washed with H2O and stained with 100 μl of a 0.057% SRB solution in 1% Acetic acid (HAc) for 30 minutes at room temperature. After staining cells were washed with 1% HAc for removing the excess of SRB and then incubated with 200 μl of 10 mM Tris base (pH 10.5) and shake it for 5 minutes to solubilise the protein-bound dye. Measurement of the absorbance took place in a VMax Kinetic Microplate Reader (Molecular Devices) at 490 nm.

[2] = target: allosteric site on the α7 nicotinic-receptor (Rattus norvegicus, UniProt Q05941); assay: Binding affinity for the allosteric site of the α7 nicotinic-receptor, using tests for viability
[3] = cited from earlier work
[4] = Sulforhodamine B (SRB) cell viability assay; assay type: cell-based; settings: 10 μM, 1 hour, PC12; read-out: cell viability, peptide alone
Description: as §1, §2

Sequence of allosteric site on the α7 nicotinic-receptor (Q05941 23-502): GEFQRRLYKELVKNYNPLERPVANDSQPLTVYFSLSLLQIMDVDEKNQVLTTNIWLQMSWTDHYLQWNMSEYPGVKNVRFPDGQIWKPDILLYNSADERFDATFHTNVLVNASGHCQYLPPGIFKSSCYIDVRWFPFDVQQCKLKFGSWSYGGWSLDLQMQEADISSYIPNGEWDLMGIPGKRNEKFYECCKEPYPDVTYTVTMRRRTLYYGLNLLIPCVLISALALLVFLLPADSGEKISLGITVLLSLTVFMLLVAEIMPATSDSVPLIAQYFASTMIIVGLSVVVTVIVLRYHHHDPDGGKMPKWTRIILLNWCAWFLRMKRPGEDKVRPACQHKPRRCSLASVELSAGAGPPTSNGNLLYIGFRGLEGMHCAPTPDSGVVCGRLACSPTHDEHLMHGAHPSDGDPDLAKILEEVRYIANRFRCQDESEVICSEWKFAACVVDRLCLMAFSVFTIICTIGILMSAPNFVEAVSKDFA
T1 sequence (Q05941 23-502): as above

Compound: COc1ccc2c3c1O[C@H]1C[C@@H](O)C=C[C@@]31CCN(C)C2 [Galanthamine]
- % [3H] Ivermectin binding (Mean ± SEM) ([1]; 100 nM competitor, Table 2, N = 6): 100.00 ± 11.48%
- % [3H] Ivermectin binding (Mean ± SEM) ([1]; 200 nM competitor, Table 2): 97.86 ± 1.40%
- % [3H] Ivermectin binding (Mean ± SEM) ([1]; 500 nM competitor, Table 2): 90.96 ± 1.87%
- % [3H] Ivermectin binding (Mean ± SEM) ([1]; 700 nM competitor, Table 2): 69.68 ± 9.87%
- % [3H] Ivermectin binding (Mean ± SEM) ([1]; 1 μM competitor, Table 2): 67.17 ± 6.64%
- % [3H] Ivermectin binding (Mean ± SEM) ([1]; 2 μM competitor, Table 2): 66.32 ± 4.29%
- dose that blocks β-Amyloid (Table 3 feature) (PC12 cells; 'high doses'): doses (0.1 μM)
- minimum effective concentration against β-Amyloid (10 μM) on cell viability (PC12 cells; PC12, FIG. 8): 100 nM
- binding affinity for the allosteric site on the α7 nicotinic-receptor [2]: low affinity
- binding affinity for the allosteric site on the α7 nicotinic-receptor ([2]; listed as galanthamine): 10 µM
- affinity (Table 3 feature) ([2]; ✓ = Dream Drug feature 'Nanomolar affinity'): Micromolar affinity
- bioavailability periphery (Table 3 feature) [3]: High bioavailability

Compound: AEFHRWSSYMVHWK [T14]
- % [3H] Ivermectin binding (Mean ± SEM) ([1]; 1 nM competitor, Table 1): 100 ± 9.91%
- % [3H] Ivermectin binding (Mean ± SEM) ([1]; 10 nM competitor, Table 1): 90.92 ± 2.38%
- % [3H] Ivermectin binding (Mean ± SEM) ([1]; 100 nM competitor, Table 1): 88.92 ± 3.82%
- % [3H] Ivermectin binding (Mean ± SEM) ([1]; 1 μM competitor, Table 1): 85.17 ± 3.03%
- % [3H] Ivermectin binding (Mean ± SEM) ([1]; 5 μM competitor, Table 1): 85.36 ± 3.96%
- viability at 10 µM [4]: 83 ± 5.38%
- binding affinity for the allosteric site on the α7 nicotinic-receptor [2]: 0.005 µM
